Columns and labels:
Type in all cases: in vivo
[1] = system: vine mealybug (Pseudococcus maritimus); assay: Foliar spray bioefficacy on table grapes; details: Spirotetramat 131 g/HA
Protocol: A bioefficacy assay utilizing a foliar spray containing Spirotetramat and pyriproxyfen was conducted on the vine mealybug (Pseudococcus maritimus) on table grapes. Spirotetramat and pyriproxyfen were applied concurrently as a foliar spray and spirotetramat was also applied individually. Application rates and results of this assay can be found in Table 11, below.

[2] = system: silverleaf whitefly (Bemisia tabaci); assay: Foliar spray bioefficacy, first assay (3 applications); details: for # of Individuals per Leaf: Adults, 1st Appl. / # of Individuals per Leaf: Eggs, 1st Appl. / # of Individuals per Leaf: Nymphs, 1st Appl.: 7 days after first application; for # of Individuals per Leaf: Adults, 2nd Appl. / # of Individuals per Leaf: Eggs, 2nd Appl. / # of Individuals per Leaf: Nymphs, 2nd Appl.: 7 days after second application; for # of Individuals per Leaf: Adults, 3rd Appl. / # of Individuals per Leaf: Eggs, 3rd Appl. / # of Individuals per Leaf: Nymphs, 3rd Appl.: 8 days after third application
Protocol: (§1) A bioefficacy assay utilizing a foliar spray containing Spirotetramat and pyriproxyfen was conducted on the silverleaf whitefly (Bemisia tabaci) on tomatoes and bell peppers. […] Control was recorded 7 days after first application, 7 days after second application and 8 days after third application. Application rates and results of this assay can be found in Table 8, below.

[3] = system: silverleaf whitefly (Bemisia tabaci); assay: Foliar spray bioefficacy, third assay (3 applications); details: for # of Individuals per Leaf: Adults, 1st Appl. / # of Individuals per Leaf: Eggs, 1st Appl. / # of Individuals per Leaf: Nymphs, 1st Appl.: 7 days after first application; for # of Individuals per Leaf: Adults, 2nd Appl. / # of Individuals per Leaf: Eggs, 2nd Appl. / # of Individuals per Leaf: Nymphs, 2nd Appl.: 7 days after second application; for # of Individuals per Leaf: Adults, 3rd Appl. / # of Individuals per Leaf: Eggs, 3rd Appl. / # of Individuals per Leaf: Nymphs, 3rd Appl.: 8 days after third application
Protocol: as §1, with “below. […] Control was recorded 7 days after first application, 7 days after second application and 8 days after third application. Application rates and results of this assay can be found in Table 10, below.” for “below.”

[4] = system: Asian citrus psyllid (Diaphorina citri); assay: Foliar spray bioefficacy on Valencia oranges
Protocol: A bioefficacy assay utilizing a foliar spray containing Spirotetramat and pyriproxyfen was conducted on the Asian citrus psyllid (Diaphorina citri) on Valencia oranges. Spirotetramat and pyriproxyfen were applied concurrently and separately as a foliar spray. Application rates and results of this assay can be found in Table 12, below.

[5] = system: silverleaf whitefly (Bemisia tabaci); assay: Foliar spray bioefficacy, second assay (2 applications); details: recorded 8 days after second application
Protocol: as §1, with “below. […] Control was recorded 8 days after second application. Application rates and results of this assay can be found in Table 9, below.” for “below.”

CCOC(=O)OC1=C(c2cc(C)ccc2C)C(=O)N[C@]12CC[C@@H](OC)CC2 [Spirotetramat, cis-3-(2,5-dimethylphenyl)-8-methoxy-2-oxo-1-azaspiro[4.5]dec-3-en-4-ylethyl carbonate]
% bunches infested [1]: 6.8%
# of Individuals per Leaf: Adults, 1st Appl. ([2]; Spirotetramat 87.6 g/HA): 3.3 per Leaf
# of Individuals per Leaf: Eggs, 1st Appl. ([2]; Spirotetramat 87.6 g/HA): 6.5 per Leaf
# of Individuals per Leaf: Nymphs, 1st Appl. ([2]; Spirotetramat 87.6 g/HA): 17.8 per Leaf
# of Individuals per Leaf: Adults, 2nd Appl. ([2]; Spirotetramat 87.6 g/HA): 2.0 per Leaf
# of Individuals per Leaf: Eggs, 2nd Appl. ([2]; Spirotetramat 87.6 g/HA): 13.8 per Leaf
# of Individuals per Leaf: Nymphs, 2nd Appl. ([2]; Spirotetramat 87.6 g/HA): 30.5 per Leaf
# of Individuals per Leaf: Adults, 3rd Appl. ([2]; Spirotetramat 87.6 g/HA): 2.0 per Leaf
# of Individuals per Leaf: Eggs, 3rd Appl. ([2]; Spirotetramat 87.6 g/HA): 11.0 per Leaf
# of Individuals per Leaf: Nymphs, 3rd Appl. ([2]; Spirotetramat 87.6 g/HA): 16.8 per Leaf
# of Individuals per Leaf: Adults, 1st Appl. ([3]; Spirotetramat 87.6 g/HA): 3.3 per Leaf
# of Individuals per Leaf: Eggs, 1st Appl. ([3]; Spirotetramat 87.6 g/HA): 6.5 per Leaf
# of Individuals per Leaf: Nymphs, 1st Appl. ([3]; Spirotetramat 87.6 g/HA): 17.8 per Leaf
# of Individuals per Leaf: Adults, 2nd Appl. ([3]; Spirotetramat 87.6 g/HA): 2.0 per Leaf
# of Individuals per Leaf: Eggs, 2nd Appl. ([3]; Spirotetramat 87.6 g/HA): 13.8 per Leaf
# of Individuals per Leaf: Nymphs, 2nd Appl. ([3]; Spirotetramat 87.6 g/HA): 30.5 per Leaf
# of Individuals per Leaf: Adults, 3rd Appl. ([3]; Spirotetramat 87.6 g/HA): 2.0 per Leaf
# of Individuals per Leaf: Eggs, 3rd Appl. ([3]; Spirotetramat 87.6 g/HA): 11.0 per Leaf
# of Individuals per Leaf: Nymphs, 3rd Appl. ([3]; Spirotetramat 87.6 g/HA): 16.8 per Leaf
# of Nymphs ([4]; Spirotetramat 163.7 g/HA): 8.6
# of Individuals per Leaf: Adults, 1st Appl. ([5]; Spirotetramat 87.6 g/HA): 2.6 per Leaf
# of Individuals per Leaf: Eggs, 1st Appl. ([5]; Spirotetramat 87.6 g/HA): 12.7 per Leaf
# of Individuals per Leaf: Nymphs, 1st Appl. ([5]; Spirotetramat 87.6 g/HA): 33.2 per Leaf

CC(COc1ccc(Oc2ccccc2)cc1)Oc1ccccn1 (racemic) [Pyriproxyfen, 4-Phenoxyphenyl (R/S)-2-(2-pyridyloxy)propyl ether]
# of Individuals per Leaf: Adults, 1st Appl. ([2]; Pyriproxyfen 75.3 g/HA): 0.5 per Leaf
# of Individuals per Leaf: Eggs, 1st Appl. ([2]; Pyriproxyfen 75.3 g/HA): 0.5 per Leaf
# of Individuals per Leaf: Nymphs, 1st Appl. ([2]; Pyriproxyfen 75.3 g/HA): 0.5 per Leaf
# of Individuals per Leaf: Adults, 2nd Appl. ([2]; Pyriproxyfen 75.3 g/HA): 1.5 per Leaf
# of Individuals per Leaf: Eggs, 2nd Appl. ([2]; Pyriproxyfen 75.3 g/HA): 2.3 per Leaf
# of Individuals per Leaf: Nymphs, 2nd Appl. ([2]; Pyriproxyfen 75.3 g/HA): 0.8 per Leaf
# of Individuals per Leaf: Adults, 3rd Appl. ([2]; Pyriproxyfen 75.3 g/HA): 1.0 per Leaf
# of Individuals per Leaf: Eggs, 3rd Appl. ([2]; Pyriproxyfen 75.3 g/HA): 2.0 per Leaf
# of Individuals per Leaf: Nymphs, 3rd Appl. ([2]; Pyriproxyfen 75.3 g/HA): 0.8 per Leaf
# of Individuals per Leaf: Adults, 1st Appl. ([3]; Pyriproxyfen 75.3 g/HA): 0.5 per Leaf
# of Individuals per Leaf: Eggs, 1st Appl. ([3]; Pyriproxyfen 75.3 g/HA): 0.5 per Leaf
# of Individuals per Leaf: Nymphs, 1st Appl. ([3]; Pyriproxyfen 75.3 g/HA): 0.5 per Leaf
# of Individuals per Leaf: Adults, 2nd Appl. ([3]; Pyriproxyfen 75.3 g/HA): 1.5 per Leaf
# of Individuals per Leaf: Eggs, 2nd Appl. ([3]; Pyriproxyfen 75.3 g/HA): 2.3 per Leaf
# of Individuals per Leaf: Nymphs, 2nd Appl. ([3]; Pyriproxyfen 75.3 g/HA): 0.8 per Leaf
# of Individuals per Leaf: Adults, 3rd Appl. ([3]; Pyriproxyfen 75.3 g/HA): 1.0 per Leaf
# of Individuals per Leaf: Eggs, 3rd Appl. ([3]; Pyriproxyfen 75.3 g/HA): 2.0 per Leaf
# of Individuals per Leaf: Nymphs, 3rd Appl. ([3]; Pyriproxyfen 75.3 g/HA): 0.8 per Leaf
# of Nymphs ([4]; Pyriproxyfen 127.9 g/HA): 14.1
# of Individuals per Leaf: Adults, 1st Appl. ([5]; Pyriproxyfen 75.3 g/HA): 1.6 per Leaf
# of Individuals per Leaf: Eggs, 1st Appl. ([5]; Pyriproxyfen 75.3 g/HA): 27.4 per Leaf
# of Individuals per Leaf: Nymphs, 1st Appl. ([5]; Pyriproxyfen 75.3 g/HA): 65.9 per Leaf

From patent publication US11690379B2, “Aqueous insecticidal composition and methods of use thereof” (priority 2020, dated 2023)
